The results in this text go back to ChEMBL document CHEMBL1136398, “Non-peptide alphavbeta3 antagonists. Part 6: design and synthesis of alphavbeta3 antagonists containing a pyridone or pyrazinone central scaffold” (Bioorg Med Chem Lett, 2003).

The nature of series [1]: Protein binding in human plasma. Conditions: read-out: PB (converted). It counts as ADME, cell-free.
Series [2] in a line: Half-life in vivo in dog by intravenous administration at a dose of 0.2 mg/kg. It counts as ADME, organism-based, Canis lupus familiaris. On the set-up: dose 0.2 mg/kg, route intravenous.
Series [3] in a line: Half-life in vivo in dog by intravenous administration at a dose of 1 mg/kg. It counts as ADME, organism-based, Canis lupus familiaris. On the set-up: dose 1 mg/kg, route intravenous.
In series [4] the test system is Canis familiaris. In words: Plasma clearance in vivo in dog by intravenous administration at a dose of 0.2 mg/kg. It counts as ADME, organism-based, Canis lupus familiaris. On the set-up: dose 0.2 mg/kg, route intravenous.
For series [5], the system named is Canis familiaris. Kind of series: Plasma clearance in vivo in dog by intravenous administration at a dose of 1 mg/kg. It counts as ADME, organism-based, Canis lupus familiaris. On the set-up: dose 1 mg/kg, route intravenous.
The nature of series [6]: Partition coefficient (logP). Conditions: octanol/water. It counts as physicochemical.
Series [7] addresses T1, Integrin alpha-V/beta-3 (Homo sapiens, UniProt P05106+P06756). Kind of series: Inhibitory activity against human alphaV-beta3 integrin using SPAV3 assay. Format: protein-complex assay.
Series [8] has as its target T1, Integrin alpha-V/beta-3. Kind of series: Inhibitory activity against human alpha V beta3 receptor using SPAV3 assay. It counts as protein-complex assay.
A short description of series [9]: Oral bioavailability in dog (dose 0.2 mg/kg i.v.). Format: ADME, organism-based, Canis lupus familiaris. Conditions: in vivo.
Series [10] in a line: Oral bioavailability in dog (dose 1 mg/kg i.v.). Format: ADME, organism-based, Canis lupus familiaris. To be noted: in vivo.

T1 sequence (P05106 27-788 limits assumed): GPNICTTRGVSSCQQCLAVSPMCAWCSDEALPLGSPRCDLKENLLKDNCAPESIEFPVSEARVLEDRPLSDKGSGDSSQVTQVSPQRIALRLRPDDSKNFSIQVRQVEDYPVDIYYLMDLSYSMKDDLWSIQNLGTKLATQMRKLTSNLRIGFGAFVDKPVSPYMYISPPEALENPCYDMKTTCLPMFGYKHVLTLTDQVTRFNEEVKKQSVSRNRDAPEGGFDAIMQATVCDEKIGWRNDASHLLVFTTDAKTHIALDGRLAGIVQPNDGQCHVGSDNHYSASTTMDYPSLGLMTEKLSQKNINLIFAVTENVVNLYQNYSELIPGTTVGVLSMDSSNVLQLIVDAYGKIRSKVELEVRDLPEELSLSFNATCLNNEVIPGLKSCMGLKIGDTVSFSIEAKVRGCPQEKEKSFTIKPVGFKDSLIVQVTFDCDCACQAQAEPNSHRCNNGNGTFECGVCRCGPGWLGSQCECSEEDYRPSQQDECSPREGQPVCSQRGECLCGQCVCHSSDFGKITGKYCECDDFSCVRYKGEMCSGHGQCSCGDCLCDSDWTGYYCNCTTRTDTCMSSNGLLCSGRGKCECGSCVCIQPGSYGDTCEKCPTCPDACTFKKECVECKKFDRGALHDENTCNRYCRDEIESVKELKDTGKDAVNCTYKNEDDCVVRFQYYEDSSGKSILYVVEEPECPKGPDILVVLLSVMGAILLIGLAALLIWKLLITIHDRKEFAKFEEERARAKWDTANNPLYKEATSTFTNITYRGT
T1 sequence (P06756 31-889 limits assumed): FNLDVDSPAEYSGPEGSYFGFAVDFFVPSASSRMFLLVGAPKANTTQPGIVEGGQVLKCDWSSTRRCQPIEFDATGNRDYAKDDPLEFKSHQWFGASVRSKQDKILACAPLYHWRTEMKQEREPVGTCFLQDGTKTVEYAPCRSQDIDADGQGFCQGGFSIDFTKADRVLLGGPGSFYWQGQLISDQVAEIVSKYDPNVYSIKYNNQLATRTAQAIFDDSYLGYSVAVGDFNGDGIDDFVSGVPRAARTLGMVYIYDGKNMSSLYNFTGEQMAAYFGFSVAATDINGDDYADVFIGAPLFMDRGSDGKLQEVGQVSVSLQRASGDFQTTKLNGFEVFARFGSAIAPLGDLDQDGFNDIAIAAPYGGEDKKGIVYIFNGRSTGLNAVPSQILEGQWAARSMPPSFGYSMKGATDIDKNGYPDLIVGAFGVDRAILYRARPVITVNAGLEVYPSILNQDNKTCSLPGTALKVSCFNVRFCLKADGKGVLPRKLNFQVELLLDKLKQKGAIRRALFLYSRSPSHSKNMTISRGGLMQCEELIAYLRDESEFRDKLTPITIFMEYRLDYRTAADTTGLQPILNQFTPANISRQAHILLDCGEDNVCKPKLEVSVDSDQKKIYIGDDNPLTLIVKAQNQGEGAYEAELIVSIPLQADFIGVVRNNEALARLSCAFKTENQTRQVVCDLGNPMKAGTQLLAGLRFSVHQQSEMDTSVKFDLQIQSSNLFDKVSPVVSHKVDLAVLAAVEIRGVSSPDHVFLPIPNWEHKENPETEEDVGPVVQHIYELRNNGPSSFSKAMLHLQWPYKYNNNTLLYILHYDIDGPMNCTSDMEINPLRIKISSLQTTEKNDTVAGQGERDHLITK
T1 sequence (P06756 891-1048 limits assumed): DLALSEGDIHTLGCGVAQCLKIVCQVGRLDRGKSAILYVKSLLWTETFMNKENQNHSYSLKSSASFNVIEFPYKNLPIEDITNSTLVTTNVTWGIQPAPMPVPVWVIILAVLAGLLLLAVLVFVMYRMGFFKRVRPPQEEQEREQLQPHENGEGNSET

Consider `Cc1ccc(NCc2ccc3c(n2)NCCC3)c(=O)n1CC(=O)N[C@@H](CC(=O)O)c1cccnc1`, for which the fraction unbound in [1] was 0.088. Further, the half-life in series [2] and in [3] was 0.8 h each time. For the same molecule, the Cl in series [4] and in series [5] was 21 mL/min/kg in each case. Moreover, the logP in series [6] was -1.46. In series [7], this molecule displayed an IC50 of 1 nM.
In series [6], `O=C(O)C[C@H](NC(=O)Cn1c(C2CC2)c(Cl)nc(NCc2ccc3c(n2)NCCC3)c1=O)c1cccc(F)c1` displayed a logP of 1.1. For the same molecule, half-maximal inhibition in series [8] (IC50) required 2.7 nM.
`O=C(O)C[C@H](NC(=O)CN1CC[C@H](CCc2ccc3c(n2)NCCC3)C1=O)c1cccnc1`: the fraction unbound in series [1] is 0.446. For the same molecule, the half-life in [2] and in [3] was 1 h in each case. Also, half-maximal inhibition in [8] (IC50) required 0.4 nM.
With `O=C(O)C[C@H](NC(=O)Cn1cccc(NCc2ccc3c(n2)NCCC3)c1=O)c1cccnc1`, in series [6], the logP is 1.55. The same molecule gave a 50% inhibitory concentration (IC50) in series [7] of 1.4 nM.
In series [6], `O=C(O)C[C@H](NC(=O)Cn1c(C2CC2)c(Cl)nc(NCc2ccc3c(n2)NCCC3)c1=O)c1cnc2ccccc2c1` returned a logP of 1.12. The same molecule showed an IC50 in series [8] of 0.7 nM.
In the case of `O=C(O)C[C@H](NC(=O)Cc1cccc(CCc2ccc3c(n2)NCCC3)c1)c1cccnc1`, 21 nM corresponded to half-maximal inhibition in series [8] (IC50).
With `Cc1c(Cl)nc(NCc2ccc3c(n2)NCCC3)c(=O)n1CC(=O)N[C@@H](CC(=O)O)c1cccc(F)c1`, the fraction unbound in series [1] was 0.015. For the same molecule, the half-life in [2] and in series [3] was 2.1 h throughout. The Cl in series [4] and in series [5] was 28 mL/min/kg throughout. In addition, the logP in [6] turned out to be 0.61. The molecule further showed an IC50 in series [8] of 2.1 nM.
With `Cc1cnc(NCc2ccc3c(n2)NCCC3)c(=O)n1CC(=O)N[C@@H](CC(=O)O)c1cccnc1`, in series [7], the IC50 amounted to 0.8 nM.
For the molecule `O=C(O)C[C@H](NC(=O)Cn1c(C2CC2)ccc(NCc2ccc3c(n2)NCCC3)c1=O)c1cccc(F)c1`, in [1], the fraction unbound was 0.006. Also, the bioavailability in series [9] and in series [10] was 3% each time. For the same molecule, the half-life in [2] and in series [3] was 0.8 h in each case. Moreover, the Cl in series [4] and in [5] was 20 mL/min/kg each time. The same molecule registered a logP in series [6] of 0.54. The same molecule yielded an IC50 in [7] of 0.8 nM.
With `O=C(O)C[C@H](NC(=O)Cn1c(-c2ccccc2)c(Cl)nc(NCc2ccc3c(n2)NCCC3)c1=O)c1cccc(F)c1`, the logP in series [6] was found to be 1.6. This molecule came in with an IC50 in series [8] of 112 nM.
For the molecule `C#C[C@H](CC(=O)O)NC(=O)Cn1c(C2CC2)ccc(NCc2ccc3c(n2)NCCC3)c1=O`, the logP in series [6] is -0.97. The molecule also came in with an IC50 in series [7] of 9 nM.
In series [6], `O=C(O)C[C@H](NC(=O)Cn1c(C2CC2)cnc(NCc2ccc3c(n2)NCCC3)c1=O)c1cccnc1` yielded a logP of 0.25. Further, the IC50 in series [8] is 0.2 nM.
For the molecule `O=C(O)C[C@H](NC(=O)Cn1c(C2CC2)cnc(NCc2ccc3c(n2)NCCC3)c1=O)c1ccc2c(c1)OCO2`, in [1], the fraction unbound is 0.025. The bioavailability in [9] and in series [10] was 0.3% in each case. The half-life in [2] and in series [3] was 1.1 h each time. In addition, the Cl in [4] and in series [5] was 26 mL/min/kg in each case. Further, the logP in [6] was -0.1. Besides, the IC50 in [8] was 0.2 nM.
`CCCc1ccc(NCc2ccc3c(n2)NCCC3)c(=O)n1CC(=O)N[C@@H](CC(=O)O)c1cccnc1` displayed a logP in series [6] of -0.48. Also, the concentration for half-maximal inhibition (IC50) in series [7] was 1.4 nM.
For `O=C(O)C[C@H](NC(=O)Cn1c(C2CC2)c(Cl)nc(NCc2ccc3c(n2)NCCC3)c1=O)c1ccc2c(c1)OCC2`, the logP in series [6] is 0.9. The molecule further yielded an IC50 in series [8] of 0.2 nM.
The molecule `O=C(O)C[C@H](NC(=O)Cc1ccc(CCc2ccc3c(n2)NCCC3)s1)c1cccnc1` showed an IC50 in [7] of 246 nM.
As for `O=C(O)C[C@H](NC(=O)Cn1c(C2CC2)cnc(NCc2ccc3c(n2)NCCC3)c1=O)c1cccc(F)c1`, the fraction unbound in [1] is 0.025. The bioavailability in series [9] and in series [10] was 0.3% in each case. Moreover, the half-life in [2] and in [3] was 1.1 h throughout. Besides, the Cl in series [4] and in series [5] was 26 mL/min/kg each time. Moreover, the logP in [6] turned out to be 0.15. Further, in series [8], the IC50 was 1.4 nM.
Consider `CCc1c(Cl)nc(NCc2ccc3c(n2)NCCC3)c(=O)n1CC(=O)N[C@@H](CC(=O)O)c1cccc(F)c1`, for which the logP in series [6] is 1.3. In [8], this molecule registered an IC50 of 9.3 nM.
The like results for `Cc1cnc(NCc2ccc3c(n2)NCCC3)c(=O)n1CC(=O)N[C@@H](CC(=O)O)c1cccc(F)c1` were, in that order, -0.31 and 1.1 nM.
The molecule `O=C(O)C[C@H](NC(=O)Cn1c(C2CC2)ccc(NCc2ccc3c(n2)NCCC3)c1=O)c1ccc2c(c1)OCC2` had a lipophilicity (logP) in [6] of 0.28. The molecule further displayed an IC50 in [7] of 0.2 nM.
In the case of `O=C(O)C[C@H](NC(=O)Cn1c(C2CC2)ccc(NCc2ccc3c(n2)NCCC3)c1=O)c1cccnc1`, the logP in [6] is -0.8. For the same molecule, in series [7], the IC50 came out at 0.2 nM.
The molecule `O=C(O)C[C@H](NC(=O)Cn1c(C2CC2)c(Cl)nc(NCc2ccc3c(n2)NCCC3)c1=O)c1cccnc1` displayed a logP in series [6] of -0.26. Moreover, 0.3 nM corresponded to half-maximal inhibition in series [8] (IC50).
In the case of `CCc1cnc(NCc2ccc3c(n2)NCCC3)c(=O)n1CC(=O)N[C@@H](CC(=O)O)c1cccc(F)c1`, the fraction unbound in series [1] is 0.028. In addition, the bioavailability in series [9] and in series [10] was 4.3% each time. In addition, the half-life in [2] and in [3] was 1.4 h throughout. The Cl in [4] and in series [5] was 22 mL/min/kg in each case. In [6], the logP was -0.47. Also, it took 1.9 nM to reach half-maximal inhibition in series [8] (IC50).

What is called half-life is the time needed for the level to fall by half in the phase considered. A low value points to fast loss. As a reminder, the logP is a log measure of how a compound divides between an organic and an aqueous phase. A higher logP goes with higher lipophilicity. Usually IC50 stands for the concentration that gives 50% inhibition. A word on the bioavailability: it is dose-corrected exposure relative to a reference, in per cent.
